Holding throughout (assay type): biochemical
In experiment [1] the target is T1, human Yes1 enzyme (Homo sapiens, UniProt P07947).
T1 construct: made in house
In words: Yes1 enzyme inhibitory activity (time-resolved fluorometry, biotinylated peptide phosphorylation). The conditions noted are these: read-out: YES_IC50. The method, boiled down: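 Inhibition was expressed against a compound-free control to give IC50, using TR-FRET read-out (Eu-cryptate anti-pTyr antibody, streptavidin-XL665).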

In experiment [2] the target is T2, human Src enzyme (Homo sapiens, UniProt P12931).
T2 construct: purchased Carna Biosciences, Inc. 08-173
In words: Src enzyme inhibitory activity (time-resolved fluorometry, biotinylated peptide phosphorylation). The conditions noted are these: read-out: SRC_IC50. The method, boiled down: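 Compounds were tested for blocking tyrosine phosphorylation of a biotinylated peptide substrate by recombinant human Src. Phosphorylated product was quantified by time-resolved fluorometry using europium cryptate and XL665 conjugates, and IC50 was calculated against the compound-free control.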

Experiment [3] has as its target T3, human Lck enzyme (Homo sapiens, UniProt P06239).
T3 construct: purchased Carna Biosciences, Inc. 08-170
In words: Lck enzyme inhibitory activity (time-resolved fluorometry, biotinylated peptide phosphorylation). The conditions noted are these: read-out: LCK_IC50. In a few lines:
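Readout pairs a europium cryptate-labelled anti-phosphotyrosine antibody with XL665-streptavidin, measured by time-resolved fluorescence. IC50 derived from percent inhibition against untreated controls.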

T3 sequence (P06239 whole entry): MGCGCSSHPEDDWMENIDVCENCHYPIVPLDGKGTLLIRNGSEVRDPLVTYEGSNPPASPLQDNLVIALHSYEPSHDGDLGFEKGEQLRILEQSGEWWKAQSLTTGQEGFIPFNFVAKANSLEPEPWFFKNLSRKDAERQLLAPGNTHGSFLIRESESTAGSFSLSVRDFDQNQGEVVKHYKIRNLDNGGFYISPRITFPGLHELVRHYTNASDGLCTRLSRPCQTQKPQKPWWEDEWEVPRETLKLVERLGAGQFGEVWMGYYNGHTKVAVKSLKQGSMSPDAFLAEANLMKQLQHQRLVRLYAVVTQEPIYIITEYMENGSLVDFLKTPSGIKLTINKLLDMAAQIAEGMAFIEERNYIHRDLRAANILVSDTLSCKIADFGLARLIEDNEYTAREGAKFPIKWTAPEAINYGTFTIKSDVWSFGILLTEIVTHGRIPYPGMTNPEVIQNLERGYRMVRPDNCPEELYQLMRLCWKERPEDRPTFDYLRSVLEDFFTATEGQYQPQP
T1 sequence (P07947 whole entry): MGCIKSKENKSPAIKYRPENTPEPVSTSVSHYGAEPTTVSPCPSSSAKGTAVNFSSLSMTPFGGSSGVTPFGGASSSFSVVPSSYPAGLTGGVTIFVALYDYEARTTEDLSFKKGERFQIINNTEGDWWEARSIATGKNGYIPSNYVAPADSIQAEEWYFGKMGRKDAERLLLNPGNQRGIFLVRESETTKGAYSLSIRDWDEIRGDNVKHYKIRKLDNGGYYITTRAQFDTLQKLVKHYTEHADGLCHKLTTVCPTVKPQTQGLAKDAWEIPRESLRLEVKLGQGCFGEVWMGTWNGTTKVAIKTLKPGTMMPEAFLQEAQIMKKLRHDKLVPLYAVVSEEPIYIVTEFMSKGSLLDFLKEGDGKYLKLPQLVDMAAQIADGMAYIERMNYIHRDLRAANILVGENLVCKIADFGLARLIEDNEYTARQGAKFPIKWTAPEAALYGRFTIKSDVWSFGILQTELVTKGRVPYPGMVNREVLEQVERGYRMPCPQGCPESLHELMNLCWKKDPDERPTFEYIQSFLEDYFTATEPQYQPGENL
T2 sequence (P12931 whole entry): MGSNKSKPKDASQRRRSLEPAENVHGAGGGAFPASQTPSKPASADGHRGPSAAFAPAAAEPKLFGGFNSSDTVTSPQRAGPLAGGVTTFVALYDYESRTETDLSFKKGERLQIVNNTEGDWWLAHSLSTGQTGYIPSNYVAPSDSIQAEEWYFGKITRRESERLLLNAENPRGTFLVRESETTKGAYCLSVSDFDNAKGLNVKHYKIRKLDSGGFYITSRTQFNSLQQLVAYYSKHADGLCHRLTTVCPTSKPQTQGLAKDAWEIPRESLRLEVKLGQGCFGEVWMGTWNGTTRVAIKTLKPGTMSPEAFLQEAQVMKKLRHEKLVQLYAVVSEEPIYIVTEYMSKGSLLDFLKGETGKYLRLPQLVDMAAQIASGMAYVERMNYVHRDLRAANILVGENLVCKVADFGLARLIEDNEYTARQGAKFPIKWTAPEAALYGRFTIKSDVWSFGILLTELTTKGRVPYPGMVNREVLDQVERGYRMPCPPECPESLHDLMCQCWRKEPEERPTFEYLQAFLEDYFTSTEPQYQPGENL

For the molecule `Cc1cc(-n2ncc(C(=O)c3cc4cc(OC5CCN(C6CS(=O)(=O)C6)CC5)c(-c5cncnc5)cc4[nH]3)c2N)ccc1Oc1ccccc1F` [Example 5-1-283, [5-amino-1-[4-(2-fluorophenoxy)-3-methylphenyl]pyrazol-4-yl]-[5-[1-(1,1-dioxothietan-3-yl)piperidin-4-yl]oxy-6-pyrimidin-5-yl-1H-indol-2-yl]methanone], the IC50 in experiment [1] was found to be 0.002 µM; in experiment [2] it was 0.27 µM; in experiment [3], 0.032 µM.
`Cc1cc(Oc2c(F)cccc2F)ncc1-n1ncc(C(=O)c2cc3cc(OC4CCN(C5CS(=O)(=O)C5)CC4)c(-c4cncnc4)cc3[nH]2)c1N` [Example 5-1-284, [5-amino-1-[6-(2,6-difluorophenoxy)-4-methylpyridin-3-yl]pyrazol-4-yl]-[5-[1-(1,1-dioxothietan-3-yl)piperidin-4-yl]oxy-5-pyrimidin-5-yl-1H-indol-2-yl]methanone]: the IC50 came to 0.0011 µM in experiment [1], 0.011 µM in experiment [2] and 0.0069 µM in experiment [3].
In the same order, the values of `Cc1cc(-n2ncc(C(=O)c3cc4cc(OC5CCN(C6CCCC6)CC5)c(-c5ccccc5Cl)cc4[nH]3)c2N)ccc1Oc1ccccc1F` [Example 5-1-285, [5-amino-1-[4-(2-fluorophenoxy)-3-methylphenyl]pyrazol-4-yl]-[6-(2-chlorophenyl)-5-(1-cyclopentylpiperidin-4-yl)oxy-1H-indol-2-yl]methanone] are 0.0052 µM, 2.3 µM and 0.5 µM.
With `Cc1cc2cc(C(=O)c3cnn(-c4cnc(Oc5c(F)cccc5F)cc4C)c3N)[nH]c2cc1N1C(=O)NC(C)(C)C1=O` [Example 5-1-286, 3-[2-[5-amino-1-[6-(2,6-difluorophenoxy)-4-methylpyridin-3-yl]pyrazole-4-carbonyl]-5-methyl-1H-indol-6-yl]-5,5-dimethylimidazolidine-2,4-dione], the IC50 amounted to 0.0023 µM in experiment [1], 0.03 µM in experiment [2] and 0.0053 µM in experiment [3].
For `Cc1cc(-n2ncc(C(=O)c3cc4cc(OC5CCN(C(C)C)CC5)c(N5C(=O)N[C@@H](C)C5=O)cc4[nH]3)c2N)ccc1Oc1ccccc1F` [Example 5-1-287, (5S)-3-[2-[5-amino-1-[4-(2-fluorophenoxy)-3-methylphenyl]pyrazole-4-carbonyl]-5-(1-propan-2-ylpiperidin-4-yl)oxy-1H-indol-6-yl]-5-methylimidazolidine-2.4-dione], in that order: 0.001 µM, 0.35 µM and 0.017 µM.
For `Cc1cc(Oc2c(F)cccc2F)ncc1-n1ncc(C(=O)c2cc3cc(OC4CCN(C5CCCC5)CC4)c(-c4ccccc4Cl)cc3[nH]2)c1N` [Example 5-1-288, [5-amino-1-[6-(2,6-difluorophenoxy)-4-methylpyridin-3-yl]pyrazol-4-yl]-[6-(2-chlorophenyl)-5-(1-cyclopentylpiperidin-4-yl)oxy-1H-indol-2-yl]methanone], in that order: 0.0019 µM, 0.052 µM and 0.017 µM.
In the same order, the values of `Cc1cc(Oc2c(F)cccc2F)ncc1-n1ncc(C(=O)c2cc3cc(OC4CCN(C5CS(=O)(=O)C5)CC4)c(-c4ccccc4Cl)cc3[nH]2)c1N` [Example 5-1-290, [5-amino-1-[6-(2,6-difluorophenoxy)-4-methylpyridin-3-yl]pyrazol-4-yl]-[6-(2-chlorophenyl)-5-[1-(1,1-dioxothietan-3-yl)piperidin-4-yl]oxy-1H-indol-2-yl]methanone] are 0.0021 µM, 0.046 µM and 0.03 µM.
`Cc1cc2cc(C(=O)c3cnn(-c4cnc(Oc5c(F)cccc5F)cc4C)c3N)[nH]c2cc1NS(=O)(=O)N1C2CCC1COC2` [Example 5-1-291, N-[2-[5-amino-1-[6-(2,6-difluorophenoxy)-4-methylpyridin-3-yl]pyrazole-4-carbonyl]-5-methyl-1H-indol-6-yl]-3-oxa-8-azabicyclo[3.2.1] octane-8-sulfonamide]: the IC50 in experiment [1] is 0.01 µM; in experiment [2], 0.42 µM; in experiment [3], 0.13 µM.
For `Cc1cc2cc(C(=O)c3cnn(-c4cnc(Oc5c(F)cccc5F)cc4C)c3N)[nH]c2cc1NS(=O)(=O)N1CCOC[C@H]1C` [Example 5-1-292, (3R)-N-[2-[5-amino-1-[6-(2,6-difluorophenoxy)-4-methylpyridin-3-yl]pyrazole-4-carbonyl]-5-methyl-1H-indol-6-yl]-3-methylmorpholine-4-sulfonamide], in that order: 0.019 µM, 0.63 µM and 0.088 µM.
Regarding `Cc1cc(-n2ncc(C(=O)c3cc4cc(OC5CCN(C(C)C)CC5)c(N5C(=O)N[C@@H](CO)C5=O)cc4[nH]3)c2N)ccc1Oc1ccccc1F` [Example 5-1-293, (5S)-3-[2-[5-amino-1-[4-(2-fluorophenoxy)-3-methylphenyl]pyrazole-4-carbonyl]-5-(1-propan-2-ylpiperidin-4-yl)oxy-1H-indol-6-yl]-5-(hydroxymethyl)imidazolidine-2,4-dione], the IC50 in experiment [1] was 0.00073 µM; in experiment [2], 0.44 µM; in experiment [3], 0.018 µM.
For `Cc1cc(-n2ncc(C(=O)c3cc4cc(OC5CCN(C(C)C)CC5)c(N5C(=O)N[C@@H](Cc6ccccc6)C5=O)cc4[nH]3)c2N)ccc1Oc1ccccc1F` [Example 5-1-294, (5S)-3-[2-[5-amino-1-[4-(2-fluorophenoxy)-3-methylphenyl]pyrazole-4-carbonyl]-5-(1-propan-2-ylpiperidin-4-yl)oxy-1H-indol-6-yl]-5-benzylimidazolidine-2,4-dione], in that order: 0.0022 µM, 0.96 µM and 0.11 µM.
In the same order, the values of `Cc1cc(-n2ncc(C(=O)c3cc4cc(OC5CCN(C(C)C)CC5)c(N5C(=O)N[C@@H](C(C)C)C5=O)cc4[nH]3)c2N)ccc1Oc1ccccc1F` [Example 5-1-295, (5S)-3-[2-[5-amino-1-[4-(2-fluorophenoxy)-3-methylphenyl]pyrazole-4-carbonyl]-5-(1-propan-2-ylpiperidin-4-yl)oxy-1H-indol-6-yl]-5-propan-2-ylimidazolidine-2,4-dione] are 0.0015 µM, 0.7 µM and 0.064 µM.
For `Cc1cc(Oc2c(F)cccc2F)ncc1-n1ncc(C(=O)c2cc3cc(OCC(F)F)c(NS(=O)(=O)Cc4ccccc4)cc3[nH]2)c1N` [Example 5-1-296, N-[2-[5-amino-1-[6-(2,6-difluorophenoxy)-4-methylpyridin-3-yl]pyrazole-4-carbonyl]-5-(2,2-difluoroethoxy)-1H-indol-6-yl]-1-phenylmethanesulfonamide], in that order: 0.0059 µM, 0.15 µM and 0.046 µM.
On to `Cc1cc(Oc2c(F)cccc2F)ncc1-n1ncc(C(=O)c2cc3cc(OCC(F)F)c(NS(=O)(=O)c4ccc(F)cc4)cc3[nH]2)c1N` [Example 5-1-297, N-[2-[5-amino-1-[6-(2,6-difluorophenoxy)-4-methylpyridin-3-yl]pyrazole-4-carbonyl]-5-(2,2-difluoroethoxy)-1H-indol-6-yl]-4-fluorobenzenesulfonamide], for which the IC50 in experiment [1] is 0.0085 µM; in experiment [2] it was 0.58 µM; in experiment [3] it was 0.046 µM.
For `Cc1cc(Oc2c(F)cccc2F)ncc1-n1ncc(C(=O)c2cc3cc(OCC(F)F)c(NS(=O)(=O)c4ccc(Cl)cc4)cc3[nH]2)c1N` [Example 5-1-298, N-[2-[5-amino-1-[6-(2,6-difluorophenoxy)-4-methylpyridin-3-yl]pyrazole-4-carbonyl]-5-(2,2-difluoroethoxy)-1H-indol-6-yl]-4-chlorobenzenesulfonamide], in that order: 0.0089 µM, 0.63 µM and 0.093 µM.
For `COc1ccc(S(=O)(=O)Nc2cc3[nH]c(C(=O)c4cnn(-c5cnc(Oc6c(F)cccc6F)cc5C)c4N)cc3cc2OCC(F)F)cc1` [Example 5-1-299, N-[2-[5-amino-1-[6-(2,6-difluorophenoxy)-4-methylpyridin-3-yl]pyrazole-4-carbonyl]-5-(2,2-difluoroethoxy)-1H-indol-6-yl]-4-methoxybenzenesulfonamide], in that order: 0.0097 µM, 0.61 µM and 0.12 µM.
In the same order, the values of `Cc1ccc(S(=O)(=O)Nc2cc3[nH]c(C(=O)c4cnn(-c5cnc(Oc6c(F)cccc6F)cc5C)c4N)cc3cc2OCC(F)F)cc1` [Example 5-1-300, N-[2-[5-amino-1-[6-(2,6-difluorophenoxy)-4-methylpyridin-3-yl]pyrazole-4-carbonyl]-5-(2,2-difluoroethoxy)-1H-indol-6-yl]-4-methylbenzenesulfonamide] are 0.0095 µM, 0.73 µM and 0.14 µM.
For the molecule `COc1ccc(Cl)c(S(=O)(=O)Nc2cc3[nH]c(C(=O)c4cnn(-c5cnc(Oc6c(F)cccc6F)cc5C)c4N)cc3cc2OCC(F)F)c1` [Example 5-1-301, N-[2-[5-amino-1-[6-(2,6-difluorophenoxy)-4-methylpyridin-3-yl]pyrazole-4-carbonyl]-5-(2,2-difluoroethoxy)-1H-indol-6-yl]-2-chloro-5-methoxybenzenesulfonamide], the IC50 in experiment [1] came out at 0.0065 µM; in experiment [2], 0.61 µM; in experiment [3], 0.17 µM.
In the same order, the values of `Cc1cc(Oc2ccccc2F)ccc1-n1ncc(C(=O)c2cc3cc(F)c(N4CC(C)(C)NS4(=O)=O)cc3[nH]2)c1N` [Example 5-1-302, (5-amino-1-(4-(2-fluorophenoxy)-2-methylphenyl)-1H-pyrazol-4-yl)(6-(4,4-dimethyl-1,1-dioxido-1,2,5-thiadiazolidin-2-yl)-5-fluoro-1H-indol-2-yl)methanone] are 0.0019 µM, 0.05 µM and 0.022 µM.

(Values after US10479780B2, “Aminopyrazole derivatives” (Chugai Seiyaku Kabushiki Kaisha, priority 2015, dated 2019).)
